Data published in article PMC9804781, “Identification of a Novel Pseudo‐Natural Product Type IV IDO1 Inhibitor Chemotype” (Angewandte Chemie (International Ed. in English), 2022).
Read-outs that look alike come from different tables or passages of the source.

Experiments:
[1] = target: T1, His-tagged TDO (Homo sapiens, UniProt P48775); experiment: TDO Activity Assay; type: biochemical; conditions: 50 µM; 120 min at 37 °C
T1 construct: His; purchased BPS Bioscience 72035 (kit)
Experimental: Inhibition of tryptophan 2,3-dioxygenase (TDO) was tested using the Universal IDO1/IDO2/TDO Inhibitor Screening Assay Kit (cat# 72035, BPS Bioscience, US). 500 ng His-tagged TDO in TDO Assay Buffer was incubated with Reaction Solution and 50 µM Test Inhibitor (0.5% (v/v) DMSO) for 120 min at 37°C with slow shaking in the dark. Afterwards, absorbance at 321 nm was recorded on the Spark® Multimode Microplate Reader (Tecan, AT), all values were subtracted by the background and normalized to the DMSO control. […]
(v/v) component 2 in component 1) and 50 µM Test Inhibitor (0.5% (v/v) DMSO) for 90 min at 30°C with slow shaking in the dark prior to initiation of the reaction by addition of 20% (v/v) IDO2 Substrate. Samples were incubated for 120 min at 30°C with slow shaking in the dark. […]

[2] = target: T2, His-tagged IDO2 (Homo sapiens, UniProt Q6ZQW0); experiment: IDO2 Activity Assay; type: biochemical; conditions: 50 µM; 90 min + 120 min at 30 °C
T2 construct: His; purchased BPS Bioscience 72035 (kit)
T2 sequence (Q6ZQW0 1-407): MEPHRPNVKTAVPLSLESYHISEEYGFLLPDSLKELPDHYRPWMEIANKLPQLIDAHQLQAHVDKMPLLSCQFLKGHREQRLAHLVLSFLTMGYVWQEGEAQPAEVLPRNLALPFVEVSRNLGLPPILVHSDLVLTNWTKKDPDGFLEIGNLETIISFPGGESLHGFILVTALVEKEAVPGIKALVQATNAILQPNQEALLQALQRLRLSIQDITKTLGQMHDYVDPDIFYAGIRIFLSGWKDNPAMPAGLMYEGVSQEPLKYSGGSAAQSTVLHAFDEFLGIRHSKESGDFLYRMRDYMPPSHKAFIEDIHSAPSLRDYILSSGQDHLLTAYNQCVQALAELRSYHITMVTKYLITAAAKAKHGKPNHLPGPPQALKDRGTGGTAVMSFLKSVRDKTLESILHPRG
Experimental: Inhibition of indoleamine 2,3-dioxygenase 2 (IDO2) was tested using the Universal IDO1/IDO2/TDO Inhibitor Screening Assay Kit (cat# 72035, BPS Bioscience, US). 10 µg His-tagged IDO2 in IDO2 Assay Buffer was incubated with Complete IDO2 Reaction Solution (1% (v/v) component 2 in component 1) and 50 µM Test Inhibitor (0.5% (v/v) DMSO) for 90 min at 30°C with slow shaking in the dark prior to initiation of the reaction by addition of 20% (v/v) IDO2 Substrate. Samples were incubated for 120 min at 30°C with slow shaking in the dark. Afterwards, absorbance at 321 nm was recorded on the Spark® Multimode Microplate Reader (Tecan, AT), all values were subtracted by the background and normalized to the DMSO control.

[3] = tested on: HeLa cells; parameters: method as in ref 9a = [9]; 9; conditions: ref 9a; cited from earlier work
[4] = tested on: Kyn levels in HeLa cells; experiment: Manual Kyn assay in HeLa cells (p-DMAB detection); type: cell-based; conditions: IFN-γ, L-Trp, compounds 48 h, p-DMAB, mean n=3 ±SD, read-out: Kyn Assay IC50
Experimental: Mammalian cell lines were maintained at 37°C and 5% CO2 in a humidified atmosphere and sub-cultivated twice a week. All cell lines were tested regularly for mycoplasma contamination and were always free of mycoplasma. BxPC-3 cells (DSMZ#760) were grown in RPMI-1640 medium supplemented with 10% FBS, 2 mM L-glutamine, 1 mM sodium pyruvate, 4.5 g/L glucose, 10 mM HEPES and 1.5 g/L NaHCO3. HeLa cells (DSMZ#57) were cultivated in DMEM supplemented with 10% FBS, 4.5 g/L glucose, 4 mM L-glutamine 1 mM sodium pyruvate, 1% non-essential amino acids, 3.7 g/L NaHCO3. SKOV-3 cells (ATCC#HTB-77) were maintained in modified McCoy’s 5A medium supplemented with 10% FBS, 1.5 mM L-glutamine and 2.2 g/L NaHCO3. […]
For manual testing, BxPC-3, HeLa or SKOV-3 cells (20,000 cells/well, 5,000 cells/well or 6,250 cells/well, respectively) were seeded in 96-well plates (BxPC-3 and HeLa) or 384-well plates (SKOV-3) in medium without phenol red. After 24 h, the IDO1 pathway was induced by addition of 50 ng/mL (BxPC-3 and HeLa) or 17.6 ng/mL IFN-γ (SKOV-3) and 380 µM (BxPC-3), 164.15 µM (HeLa) or 450 µM L-Trp (SKOV-3) with simultaneous treatment with the compounds at the indicated concentrations followed by incubation for 48 h. For the hemin competition assay, hemin was added together with IFN-γ, L-Trp and the compounds. Subsequently, trichloroacetic acid was added to a final concentration of 7% (v/v), the plates were incubated for 15 min at room […]
temperature and centrifuged for 10 min at 1800 x g. Afterwards, an equal volume of freshly prepared 2% (w/v) p-DMAB in glacial acetic acid (Ehrlich reagent) was added prior to measuring the absorbance at 492 nm and 650 nm on the Spark® Multimode Microplate Reader (Tecan, AT).
To determine the Kyn levels, the absorbance of the Kyn-p-DMAB adduct A492 was subtracted by the background absorbance A650 and normalized to the DMSO control. Data analysis was performed using a non-linear regression curve fit and GraphPad Prism 9.0 (GraphPad Software, Inc, US) to generate dose-response curves and obtain IC50 values. […]
Subsequently, 10 mM ascorbic acid, 10 μM methylene blue, 2 mM L-Trp and 100 μg/mL catalase were added and samples were incubated for 60 min at room temperature or 37°C. […]

[5] = tested on: Kyn levels in BxPC-3 cells; experiment: Automated (high-throughput) Kyn assay in BxPC-3 cells (Kyn sensor); type: cell-based
Experimental: Mammalian cell lines were maintained at 37°C and 5% CO2 in a humidified atmosphere and sub-cultivated twice a week. All cell lines were tested regularly for mycoplasma contamination and were always free of mycoplasma. BxPC-3 cells (DSMZ#760) were grown in RPMI-1640 medium supplemented with 10% FBS, 2 mM L-glutamine, 1 mM sodium pyruvate, 4.5 g/L glucose, 10 mM […]
HEPES and 1.5 g/L NaHCO3. […]
High-throughput Kyn assay
Automated screening for modulators of Kyn levels in BxPC-3 cells was performed as published earlier.[2] Briefly, BxPC-3 cells (1,000 cells/well) were seeded in black 1536-well plates prior to incubation for 24 h and subsequent treatment with compounds, 380 µM L-Trp and 50 ng/mL IFN-γ for 48 h. Afterwards, trichloroacetic acid was added to a final concentration of 7% (v/v), the plates were incubated for 10 min at 37°C and centrifuged for 10 min at 1620 x g. Kyn was detected by addition of 17.5 µM Kyn sensor[14] in assay buffer (excitation: 535 nm, emission: […]

[6] = tested on: autophagy; experiment: Automated screen: autophagy induction under fed condition; type: cell-based; conditions: automated screening assay
[7] = tested on: autophagy; experiment: Automated screen: autophagy inhibition in the presence of rapamycin; type: cell-based; conditions: automated screening assay
[8] = tested on: autophagy; experiment: Automated screen: autophagy induction in the presence of chloroquine; type: cell-based; conditions: automated screening assay
[9] = tested on: hedgehog signaling; experiment: Automated screen: hedgehog signaling; type: cell-based; conditions: automated screening assay
[10] = tested on: alkaline phosphatase; experiment: Automated screen: alkaline phosphatase; conditions: automated screening assay
[11] = tested on: BMP signaling; experiment: Automated screen: BMP signaling; type: cell-based; conditions: automated screening assay
[12] = tested on: Wnt signaling; experiment: Automated screen: Wnt signaling; type: cell-based; conditions: automated screening assay
[13] = tested on: glucose uptake; experiment: Automated screen: glucose uptake; type: cell-based; conditions: automated screening assay

T1 sequence (P48775 whole entry): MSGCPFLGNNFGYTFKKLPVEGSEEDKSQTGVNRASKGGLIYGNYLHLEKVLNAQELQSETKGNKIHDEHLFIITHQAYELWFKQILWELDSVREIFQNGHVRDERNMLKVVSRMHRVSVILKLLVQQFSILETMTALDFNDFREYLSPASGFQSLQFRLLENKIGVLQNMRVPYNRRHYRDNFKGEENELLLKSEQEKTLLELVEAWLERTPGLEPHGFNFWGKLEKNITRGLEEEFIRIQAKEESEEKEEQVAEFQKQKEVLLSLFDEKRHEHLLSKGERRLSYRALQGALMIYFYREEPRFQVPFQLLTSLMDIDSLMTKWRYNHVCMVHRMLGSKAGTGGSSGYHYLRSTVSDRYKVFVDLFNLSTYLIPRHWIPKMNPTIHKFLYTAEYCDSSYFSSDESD

SMILES | inhibition of TDO (result in words) [1] | inhibition of IDO2 (result in words) [2] | IC50 [3] | IC50 ([4]; listed as 3b^a) | IC50 ([4]; listed as 3b^b) | IC50 [4] | effect on cellular kynurenine (Kyn) levels ([5]; BxPC-3 cells stimulated with IFN-γ) | kynurenine levels, IC50/EC50 ([5]; automated screening assay) | kynurenine levels, inhibition ([5]; automated screening assay) | autophagy induction under fed condition, IC50/EC50 [6] | autophagy induction under fed condition, inhibition [6] | autophagy inhibition in the presence of rapamycin, inhibition [7] | autophagy induction in the presence of chloroquine, IC50/EC50 [8] | autophagy induction in the presence of chloroquine, inhibition [8] | hedgehog signaling, IC50/EC50 [9] | hedgehog signaling, inhibition [9] | alkaline phosphatase, IC50/EC50 [10] | BMP signaling, inhibition [11] | Wnt signaling, inhibition [12] | glucose uptake, inhibition [13]
C[C@@H](C(=O)Nc1ccc(Cl)cc1)C1CCC(c2ccnc3ccc(F)cc23)CC1 (some centres unmarked) [BMS-986205] | did not inhibit | did not inhibit | 4.2 nM |  |  |  |  |  |  |  |  |  |  |  |  |  |  |  |  | 
CCOC(=O)C1=CC[C@](C(=O)OC)(c2cc3ccccc3n2C)N(S(=O)(=O)c2ccccc2[N+](=O)[O-])[C@@H]1C(=O)OC(C)(C)C [Compound 3b] |  |  |  | 2440 ± 560 nM | 660 ± 50 nM | 490 ± 100 nM | selectively decreased | 630 ± 320 nM | 94.0 ± 1% | inactive | 0.33 ± 0.47% | 10.50 ± 9.50% | inactive | -3.67 ± 0.94% | 6330 ± 690 nM | 73.0 ± 10.0% | inactive | 37% | 45.33 ± 1.89% | 17%
